Test results: PubChem BioAssay (NCI)
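Results reflect a 48-hour exposure of cells in 96-well plates to compound at five concentrations. TGI is the concentration that stops growth completely.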

Assays:
Assay in all cases: inhibition of tumour cell growth, NCI panel, 48 h
[1] = test system: 786-0 renal
[2] = test system: CCRF-CEM leukemia
[3] = test system: COLO 205 colon
[4] = test system: EKVX NSCLC
[5] = test system: HCT-116 colon
[6] = test system: HCT-15 colon
[7] = test system: HT29 colon
[8] = test system: M14 melanoma
[9] = test system: MALME-3M melanoma
[10] = test system: MDA-MB-435
[11] = test system: NCI-H23 lung
[12] = test system: NCI-H522 lung
[13] = test system: OVCAR-5 ovarian
[14] = test system: SF-268 CNS
[15] = test system: SK-MEL-2 melanoma
[16] = test system: SK-MEL-5 melanoma
[17] = test system: SNB-75 CNS
[18] = test system: SW-620 colon
[19] = test system: UACC-257 melanoma
[20] = test system: LOX IMVI melanoma

SMILES | TGI [1] | TGI [2] | TGI [3] | TGI [4] | TGI [5] | TGI [6] | TGI [7] | TGI [8] | TGI [9] | TGI [10] | TGI [11] | TGI [12] | TGI [13] | TGI [14] | TGI [15] | TGI [16] | TGI [17] | TGI [18] | TGI [19] | TGI [20]
CCOC(=O)c1cc(C2CCN(Cc3ccccc3)C2=S)c(C(=O)C=[N+]=[N-])[nH]1 (centres undefined) | 85.4 µM | > 100 µM | > 100 µM | 89.6 µM | > 100 µM | 53.8 µM | > 100 µM | 48.7 µM | 66.3 µM | > 100 µM | 53.4 µM | 46.7 µM | > 100 µM | 73.9 µM | 63 µM | 34.5 µM | 91.6 µM | > 100 µM | 71.4 µM | –
CCCCOC(=O)c1cc(C(=CCC[C@H]2CC[C@@]3(C)[C@@H](CC[C@@H]4[C@@H]3CC[C@]3(C)[C@@H](C(C)CCCC(C)C)CC[C@@H]43)C2)c2cc(Cl)c(O)c(C(=O)OCCCC)c2)cc(Cl)c1O (some centres undefined) | > 50 µM | > 50 µM | > 50 µM | > 50 µM | > 50 µM | > 50 µM | > 50 µM | – | – | > 50 µM | > 50 µM | – | – | > 50 µM | > 50 µM | > 50 µM | > 50 µM | > 50 µM | – | > 50 µM
Cc1ccc(N=C2C(c3ccccc3)=C(SC3=C(c4ccccc4)C(=Nc4ccc(C)cc4)c4ccccc43)c3ccccc32)cc1 | 22.4 µM | > 100 µM | > 100 µM | 43.9 µM | > 100 µM | > 100 µM | > 48.9 µM | > 100 µM | – | > 100 µM | 41.6 µM | > 100 µM | > 100 µM | 18.8 µM | > 78.7 µM | > 100 µM | 22.2 µM | > 100 µM | > 100 µM | > 100 µM
CCCCCCCCC/C=C1/CC(CO)(COC(=O)c2ccccc2)OC1=O (centres undefined) | 29.4 µM | 28.7 µM | 11.8 µM | 28.2 µM | 56.2 µM | 29.8 µM | 31.6 µM | 30.8 µM | 20.8 µM | 23.3 µM | 28.3 µM | 26.6 µM | 24.6 µM | 29.8 µM | 32.4 µM | 19.2 µM | 22.1 µM | 27.4 µM | 27.4 µM | –
O=C1CCCc2ccc3c(c21)CC1(Cc2ccccc2C1)C3 | > 100 µM | – | 52.3 µM | > 100 µM | 55.7 µM | > 100 µM | 45 µM | > 100 µM | > 100 µM | > 100 µM | > 100 µM | 74.3 µM | > 100 µM | – | > 100 µM | 33.4 µM | 9.64 µM | – | 58 µM | > 100 µM
O=C(C/C=C/c1ccccc1)c1ccccc1 | 48.8 µM | 64.8 µM | 56.6 µM | > 100 µM | 33.1 µM | 37 µM | 65.5 µM | 32.2 µM | – | 42.5 µM | 31.6 µM | 34.1 µM | > 100 µM | 56.8 µM | – | 40.8 µM | 69.2 µM | > 100 µM | 72.1 µM | 30.3 µM
CCO/C(Cc1ccc(Cl)cc1)=N/NC(N)=S | > 100 µM | > 100 µM | > 100 µM | > 100 µM | > 100 µM | > 100 µM | > 100 µM | > 100 µM | > 100 µM | > 100 µM | > 100 µM | – | > 100 µM | – | > 100 µM | > 100 µM | > 100 µM | > 100 µM | > 100 µM | > 100 µM
O=c1c2ccccc2[nH]c2c(Cl)cc(Cl)c(N3CCCCC3)c12 | > 10 µM | > 10 µM | > 100 µM | > 100 µM | > 100 µM | > 100 µM | 32.6 µM | 88.9 µM | – | 55.8 µM | 76.5 µM | 64.3 µM | > 100 µM | – | 59.1 µM | > 100 µM | > 100 µM | 84.8 µM | > 100 µM | > 100 µM
CC(C)[C@@H](C)[C@@]1(C)C[C@@H]1[C@@H](C)[C@H]1CC[C@@H]([C@@H]2CC=C3C[C@@H](O)CC[C@]3(C)C2=O)[C@]1(C)CCO | 17.2 µM | – | 24.3 µM | 26 µM | 21.6 µM | 17.4 µM | 7.39 µM | – | 27.4 µM | 24.3 µM | 27.2 µM | 19.8 µM | 23.8 µM | 30.3 µM | 33.3 µM | 26.4 µM | 17.9 µM | 20.1 µM | 27.4 µM | 15.4 µM
Cc1c(F)c(NC(=O)CN(C)C)c2c(=O)cc(-c3ccc(NC(=O)CN(C)C)c(F)c3)oc2c1F | 31.1 µM | 57 µM | 38 µM | – | 29.3 µM | 33.7 µM | 33.8 µM | 31.7 µM | 45.9 µM | 26.5 µM | 36.1 µM | 41.4 µM | 41.1 µM | 38.3 µM | 37.1 µM | 30.6 µM | – | 46.9 µM | 48.1 µM | 30.9 µM
N#Cc1ccc(C2NN=CC23C(=O)c2ccccc2OC3c2ccccc2)cc1 (centres undefined) | > 100 µM | > 100 µM | 38 µM | 84.8 µM | 69 µM | > 100 µM | > 100 µM | > 100 µM | > 100 µM | > 100 µM | > 100 µM | 54.4 µM | > 100 µM | > 100 µM | > 100 µM | 74.8 µM | – | > 100 µM | > 100 µM | > 100 µM
CC[C@@]1(CCC(=O)NCCc2c[nH]c3ccccc23)CCC(=O)N2CCc3c([nH]c4ccccc34)[C@H]21 | > 100 µM | > 100 µM | > 100 µM | > 100 µM | > 100 µM | > 100 µM | – | > 100 µM | 25.4 µM | 47.1 µM | > 100 µM | 18.8 µM | > 100 µM | 30 µM | 86.4 µM | > 100 µM | – | > 100 µM | > 100 µM | 96.2 µM
CC(=O)/C(C=Nc1c(C)n(C)n(C)c1=O)=C(/O)c1ccccc1 | > 50 µM | > 50 µM | > 50 µM | > 50 µM | > 50 µM | > 50 µM | > 50 µM | > 50 µM | > 50 µM | > 50 µM | > 50 µM | > 50 µM | > 50 µM | > 50 µM | > 50 µM | > 50 µM | – | > 50 µM | > 50 µM | > 50 µM
[N-]=[N+]=CC(=O)CCC(=O)N(c1ccccc1)c1ccccc1 | > 10 µM | > 10 µM | – | > 10 µM | > 10 µM | > 10 µM | > 10 µM | > 10 µM | > 10 µM | > 10 µM | > 10 µM | – | > 10 µM | > 10 µM | > 10 µM | > 10 µM | > 10 µM | > 10 µM | > 10 µM | > 10 µM
S=C(N1CCN(c2ccccc2)CC1)N1CCN(c2ccccc2)CC1 | > 100 µM | 68.7 µM | > 100 µM | > 100 µM | > 100 µM | > 100 µM | > 100 µM | > 100 µM | > 100 µM | > 100 µM | > 100 µM | > 100 µM | > 100 µM | > 100 µM | > 100 µM | > 100 µM | > 100 µM | > 100 µM | > 100 µM | –
CCCNC(=O)N1CC(CN2CCN(c3ccccc3)CC2)O/C1=N/C(=O)Nc1ccccc1 (centres undefined) | > 100 µM | – | 74.1 µM | > 100 µM | > 100 µM | – | > 100 µM | > 100 µM | > 100 µM | > 100 µM | > 100 µM | > 100 µM | > 100 µM | > 100 µM | > 100 µM | 94.1 µM | > 100 µM | > 100 µM | > 100 µM | > 100 µM
COc1cc2ccc1OCc1cccc(n1)COc1ccc(cc1OC)C=NCCNCCN=C2 | > 100 µM | – | > 100 µM | > 100 µM | > 100 µM | > 100 µM | > 100 µM | > 100 µM | > 100 µM | > 100 µM | > 100 µM | > 100 µM | > 100 µM | > 100 µM | > 100 µM | > 100 µM | > 100 µM | > 100 µM | > 100 µM | > 100 µM
CCCCC(=O)Nc1ccc2c(C)cc(-c3ccc(-c4cc(-c5ccc(C)cc5)cc(-c5ccc(-c6cc(C)c7ccc(NC(=O)CCCC)nc7n6)cc5)n4)cc3)nc2n1 | > 100 µM | > 100 µM | > 100 µM | > 100 µM | > 100 µM | > 100 µM | – | > 100 µM | > 100 µM | > 100 µM | > 100 µM | > 100 µM | > 100 µM | > 100 µM | > 100 µM | > 100 µM | > 100 µM | – | > 100 µM | –
Cc1nnc(Sc2nc(C#N)c(C#N)nc2Sc2nnc(C)s2)s1 | 28.6 µM | 5.15 µM | > 53.3 µM | > 73.6 µM | > 64.3 µM | 7.42 µM | > 23.8 µM | 62.9 µM | 4.48 µM | > 84.7 µM | 49.8 µM | – | 46.5 µM | 73.2 µM | 44.7 µM | 46.2 µM | > 82.3 µM | – | 62 µM | 9.18 µM
Cc1cc2nc(N3C(=O)/C(=C/c4ccc(N(C)C)cc4)N=C3c3ccccc3)sc2cc1C | 49.9 µM | 34 µM | 40.7 µM | > 100 µM | 43 µM | > 100 µM | 44.2 µM | 73.1 µM | – | 51 µM | – | – | 84.2 µM | > 100 µM | 65.3 µM | 44.4 µM | 56.8 µM | > 100 µM | > 100 µM | > 100 µM
COC(=O)C1=C(CCC[C@H](C)O[Si](C)(C)C(C)(C)C)NC(=O)N2[C@@H](CCO)CC[C@H]12 | 29.1 µM | – | 34 µM | 26.1 µM | 20 µM | 28.9 µM | 29.8 µM | 30.9 µM | 25.9 µM | 39.7 µM | 27.2 µM | 19.2 µM | 33.7 µM | 28.6 µM | – | 21 µM | 30.5 µM | 42.5 µM | 28.9 µM | 32.7 µM
COc1ccc(C(=O)/C=C/c2ccc(OCC(=N)N)cc2)cc1 | 29.9 µM | 25.7 µM | 28.6 µM | 30.8 µM | 16.7 µM | 31.7 µM | 28.8 µM | 32.6 µM | 32 µM | 36.8 µM | 43.3 µM | – | 83.9 µM | 35.6 µM | – | 33.1 µM | 20.3 µM | 14.7 µM | 38.1 µM | –
O=P(O)(CN1CCN(CP(=O)(O)c2ccccc2)CCN(CP(=O)(O)c2ccccc2)CC1)c1ccccc1 | > 100 µM | > 100 µM | > 100 µM | > 100 µM | > 100 µM | – | > 100 µM | – | > 100 µM | > 100 µM | > 100 µM | – | > 100 µM | > 100 µM | – | > 100 µM | > 100 µM | > 100 µM | – | > 100 µM
O=C1NC(=S)NC(=O)C1=C/C=C/c1ccc([N+](=O)[O-])cc1 | 34.5 µM | – | 33.6 µM | 36.7 µM | 37.2 µM | 31.7 µM | 58.7 µM | 30.8 µM | 80.8 µM | 28.3 µM | 29.6 µM | – | 40.2 µM | 36.8 µM | 30.9 µM | 42.5 µM | 35.2 µM | 18.9 µM | 30.8 µM | 22.6 µM
